Test results: paper PMC12947280, “An Antifungal with a Novel Mechanism of Action Discovered via Resistance Gene-Guided Genome Mining” (ACS Central Science, 2026)
≈ marks a conversion by molar mass, not a printed value.

Key:
physchem = settings: aqueous with cosolvent or surfactant or cyclodextrin, kinetic from dmso stock
S. cerevisiae ALS [1] = target: T1, S. cerevisiae ALS (Saccharomyces cerevisiae, UniProt P07342); experiment: FAD cofactor reoxidation upon incubation with ALS; assay type: biochemical; settings: in contrast to accumulative inhibitors 2 and 3
T1 construct: made in house; host or cells: E. coli BL21 (DE3), pET28a-ScILV2

AfALS = experiment: Intact protein mass spectrometry; assay type: binding, Aspergillus fumigatus; settings: 10 μM, 30 min
Source text: We next characterized the structural basis for binding of 1 to ALS. Given the strained structure and the observed tight binding kinetics, we hypothesized that 1 may be binding covalently. Analysis of ALS from both AfALS and ScALS by intact protein mass spectrometry yielded traces with multiple proteoforms for both proteins. […] Limited proteolysis followed by peptide mapping localized the covalent attachment to the 239[…]258 peptide of ScALS with Lys251 and Asp252 (equivalent to Lys310 and Asp311 in AfALS) serving as the most likely attachment sites (Figure S7).

Plasma stability, human = assay type: in vitro ADME; settings: read-out: Plasma t1/2 Human
[2] = target: T2, S. cerevisiae ALS wild type (Saccharomyces cerevisiae, UniProt P07342); experiment: ALS biochemical assay (ScALS), wild type
T2 construct: made in house; host or cells: E. coli BL21 (DE3), pET28a-ScILV2
Experimental: (§1) ALS biochemical assay (ScALS)
(§2) Saccharomyces cerevisiae acetohydroxyacid synthase (ScALS) lacking the N-terminal […]
(§3) Escherichia coli as an N-terminally His6-tagged protein. Assays (50 µL final volume) contained […]
(§4) adenine dinucleotide, 10 mM MgCl2, 1 mM DTT, 1% DMSO (± inhibitor) in 500 mM K2HPO4 buffer at pH 7.5. Following a 30 min pre-incubation of the enzyme and inhibitor in the reaction mixture at room temperature, reactions were initiated with the addition of pyruvate. ScALS assays were carried out at 30 °C for 60 min. The reaction was quenched with the addition of 5 µL of 10% H2SO4 (v/v in deionized water). Reactions were incubated at 60 °C at 800 rpm in an […]
(§5) to acetoin. Subsequently, the concentration of acetoin was determined by the addition of 7.5 µL 6 M NaOH, 25 µL 0.5% creatine (w/v in deionized water), and 25 µL 4% 1-naphthol (w/v in 2.5 M NaOH). This mixture was incubated at 60 °C at 800 rpm in an incubating microplate shaker for […]
(§6) 40 µL of this reaction mixture was transferred to a half area UV-star 96-well plate (Grenier) and the absorbance at 525 nm was measured on a Spark multimode plate reader (Tecan). The percent inhibition was calculated by the comparison of the signal to DMSO (0% […]
(§7) IC50 values were calculated from the dose response curves using Prism 9 (four parameter, variable slope). […]
(§8) Expression and purification of ScALS
(§9) S. cerevisiae ILV2 (the gene or ScALS) lacking the N-terminal mitochondrial-localization tag

A. fumigatus ALS = A. fumigatus ALS (Aspergillus fumigatus, UniProt Q4WXQ3); experiment: ALS biochemical assay (AfALS)
Experimental: ALS biochemical assay (AfALS)
Aspergillus fumigatus acetohydroxyacid synthase (AfILV2) lacking the N-terminal mitochondrial-targeting sequence (amino acids 112-752) was overproduced and isolated from E. coli as an N-terminally His6-tagged protein. Assays (50 µL final volume) contained 200 nM His6-AfALS, 8 mM pyruvate, 1 mM thiamine pyrophosphate, and 10 µM flavin adenine dinucleotide, 10 mM MgCl2, 1 mM DTT, 1% DMSO (± inhibitor) in 200 mM KH2PO4 buffer at pH
7.5. Following a 30 min pre-incubation of the enzyme and inhibitor in the reaction mixture at room temperature, reactions were initiated with the addition of pyruvate. AfALS assays were carried out at 30 °C for 120 min. The reaction was quenched with the addition of 5 µL of 10% H2SO4 (v/v in deionized water). Reactions were incubated at 60 °C at incubating microplate shaker for 15 min to convert the product of the ALS reaction, acetolactate, to acetoin.
Subsequently, the concentration of acetoin was determined by the addition of 7.5 µL 6 M NaOH, 25 µL 0.5% creatine (w/v in deionized water), and 25 µL 4% 1-naphthol (w/v in 2.5 M NaOH).
This mixture was incubated at 60 °C in an incubating microplate shaker for 15 min. 40 µL of this reaction mixture was transferred to a half area UV-star 96-well plate (Grenier) and the absorbance at 525 nm was measured on a Spark multimode plate reader (Tecan). The percent inhibition was calculated by the comparison of the signal to DMSO (0% inhibition) and no enzyme (100% inhibition) controls. IC50 values were calculated from the dose response curves using Prism 9 (four parameter, variable slope). […]
(amino acids 58-687) was codon optimized for expression in E. coli and synthesized by […]

S. cerevisiae ALS [3] = target: T1, S. cerevisiae ALS; experiment: Kinetic characterization: IC50 vs concentration of active ALS; assay type: biochemical; settings: IC50 equal to half the concentration of active ALS
S. cerevisiae ALS P192S = target: T3, S. cerevisiae ALS P192S (Saccharomyces cerevisiae, UniProt P07342, P192S); experiment: biochemical; assay type: biochemical
T3 construct: His6 (followed by a TEV protease site, pET28a) (N); made in house; host or cells: E. coli (inferred from the ScALS method)
Experimental: as §1, §2, §3, §4, §5, §6, §7, §8, §9

[4] = design: method as in PMID 41148120; settings: another study; cited from earlier work
A. fumigatus = experiment: Inhibition of A. fumigatus growth; assay type: cell-based; settings: Aspergillus fumigatus
[5] = Liver microsome stability, human; assay type: in vitro ADME; settings: human liver microsomes; read-out: Liver microsome t1/2 Human
C. albicans ALS = C. albicans ALS (Candida albicans, UniProt A0A1D8PJF9); experiment: ALS biochemical assay (CaALS)
Plasma stability, mouse = assay type: in vitro ADME; settings: read-out: Plasma t1/2 Mouse
[6] = Liver microsome stability, mouse; assay type: in vitro ADME; settings: mouse liver microsomes; read-out: Liver microsome t1/2 Mouse

T1 sequence (P07342 58-687): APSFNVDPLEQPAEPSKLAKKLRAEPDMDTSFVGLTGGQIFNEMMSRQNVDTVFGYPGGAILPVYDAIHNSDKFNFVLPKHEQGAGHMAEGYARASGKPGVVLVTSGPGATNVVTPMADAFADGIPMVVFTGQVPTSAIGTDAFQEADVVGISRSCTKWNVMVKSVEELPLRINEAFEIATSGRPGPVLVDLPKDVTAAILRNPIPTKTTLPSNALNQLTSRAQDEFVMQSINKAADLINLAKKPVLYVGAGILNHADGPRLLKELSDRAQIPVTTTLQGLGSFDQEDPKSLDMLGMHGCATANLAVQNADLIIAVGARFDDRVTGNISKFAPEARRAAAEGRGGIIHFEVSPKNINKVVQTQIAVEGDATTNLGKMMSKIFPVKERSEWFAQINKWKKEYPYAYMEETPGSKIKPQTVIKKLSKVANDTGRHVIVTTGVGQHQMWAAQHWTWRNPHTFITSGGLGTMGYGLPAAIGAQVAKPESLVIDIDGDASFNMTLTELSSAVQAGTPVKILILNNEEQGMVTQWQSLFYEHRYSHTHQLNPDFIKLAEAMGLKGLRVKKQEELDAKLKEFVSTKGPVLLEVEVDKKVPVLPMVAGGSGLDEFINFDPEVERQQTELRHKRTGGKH
T2 sequence (P07342 58-687): as above
T3 sequence (P07342 58-687 P192S): as the sequence (P07342 58-687) above, with P135S counted along it
A. fumigatus ALS, sequence (Q4WXQ3 entry or part of it): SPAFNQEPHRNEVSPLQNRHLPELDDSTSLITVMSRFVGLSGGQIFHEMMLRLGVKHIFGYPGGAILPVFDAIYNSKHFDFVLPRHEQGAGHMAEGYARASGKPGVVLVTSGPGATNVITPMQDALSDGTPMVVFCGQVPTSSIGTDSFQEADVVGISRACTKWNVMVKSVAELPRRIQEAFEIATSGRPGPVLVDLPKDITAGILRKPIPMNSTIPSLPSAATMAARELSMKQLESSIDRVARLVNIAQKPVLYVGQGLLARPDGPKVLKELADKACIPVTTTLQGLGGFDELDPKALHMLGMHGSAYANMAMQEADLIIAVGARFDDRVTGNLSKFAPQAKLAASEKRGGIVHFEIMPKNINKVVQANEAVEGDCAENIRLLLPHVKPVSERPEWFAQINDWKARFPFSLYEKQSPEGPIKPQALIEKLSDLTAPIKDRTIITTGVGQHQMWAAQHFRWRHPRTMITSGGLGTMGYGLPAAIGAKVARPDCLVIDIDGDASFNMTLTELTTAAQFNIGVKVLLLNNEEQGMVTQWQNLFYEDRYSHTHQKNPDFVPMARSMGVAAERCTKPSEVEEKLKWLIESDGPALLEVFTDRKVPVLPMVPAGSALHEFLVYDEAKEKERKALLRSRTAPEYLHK
C. albicans ALS, sequence (A0A1D8PJF9 entry or part of it): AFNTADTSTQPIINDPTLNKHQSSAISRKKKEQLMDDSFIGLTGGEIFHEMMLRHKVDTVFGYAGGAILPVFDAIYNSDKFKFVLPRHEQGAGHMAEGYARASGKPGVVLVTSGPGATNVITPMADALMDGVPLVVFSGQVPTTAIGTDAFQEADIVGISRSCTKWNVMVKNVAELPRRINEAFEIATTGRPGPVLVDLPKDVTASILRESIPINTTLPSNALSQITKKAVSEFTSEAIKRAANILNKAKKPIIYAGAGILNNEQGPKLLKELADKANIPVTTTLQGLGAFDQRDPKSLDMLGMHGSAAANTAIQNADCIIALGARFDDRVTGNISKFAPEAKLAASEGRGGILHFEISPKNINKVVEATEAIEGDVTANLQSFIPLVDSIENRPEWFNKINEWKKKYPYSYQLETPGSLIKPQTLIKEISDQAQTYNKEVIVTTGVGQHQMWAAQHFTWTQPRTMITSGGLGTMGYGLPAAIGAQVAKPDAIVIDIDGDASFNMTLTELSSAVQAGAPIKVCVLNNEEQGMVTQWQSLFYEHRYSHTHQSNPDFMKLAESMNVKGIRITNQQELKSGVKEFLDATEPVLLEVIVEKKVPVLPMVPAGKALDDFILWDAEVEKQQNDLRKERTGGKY

For CCCC1C(C)=CC2CC=CC3(C)C2C1C(=O)C31C(=O)NC(CCCO)C1=O (centres unmarked) [compound 1], the solubility kinetic (physchem) was 260 µM (≈ 100 µg/mL), the “FAD reoxidation upon treatment” value (S. cerevisiae ALS [1]) was “no indication of FAD reoxidation” and the “covalent modification of AfALS (intact mass shift)” value (AfALS) was “mass shifts consistent with covalent addition”. For the same molecule, the half-life (Plasma stability, human) was 79 min, the “potency against ScALS compared with diastereomer 13” value ([2]; Figure S6) was “significantly more potent” and the IC50 ([2]; recombinant ScALS, read-out: S. cerevisiae ALS IC50 Wild type) was 15 ± 1 nM. For the same molecule, the IC50 (A. fumigatus ALS) was 49 ± 8 nM, the “binding kinetics (IC50 vs concentration of active ALS)” value (S. cerevisiae ALS [3]) was “tight-binding kinetics” and the IC50 (S. cerevisiae ALS P192S) was 66 ± 9 nM. The “shift in potency, P192S mutant ScALS compared to wild-type ScALS” value (S. cerevisiae ALS P192S) was 4 fold, the herbicidal activity [4] was “modest herbicidal activity” and the EC50 (A. fumigatus; read-out: A. fumigatus growth inhibition EC50 (Figure 4A)) was 700 ± 500 nM. It also gave an IC50 (A. fumigatus; read-out: A. fumigatus growth inhibition IC50) of 700 nM, a half-life [5] of 3 min and an IC50 (C. albicans ALS) of 60 ± 10 nM. The half-life (Plasma stability, mouse) was 88 min and the half-life [6] was 3 min.
